Here are results for 26 compounds from the Kinase Knowledgebase extract (Sharma et al. 2016).

The test deals with ROCK2 (human) (UniProt O75116). Briefly: Assessment of ROCK2 Kinase Activity.
ROCK2 (human), sequence (O75116 whole entry, looked up): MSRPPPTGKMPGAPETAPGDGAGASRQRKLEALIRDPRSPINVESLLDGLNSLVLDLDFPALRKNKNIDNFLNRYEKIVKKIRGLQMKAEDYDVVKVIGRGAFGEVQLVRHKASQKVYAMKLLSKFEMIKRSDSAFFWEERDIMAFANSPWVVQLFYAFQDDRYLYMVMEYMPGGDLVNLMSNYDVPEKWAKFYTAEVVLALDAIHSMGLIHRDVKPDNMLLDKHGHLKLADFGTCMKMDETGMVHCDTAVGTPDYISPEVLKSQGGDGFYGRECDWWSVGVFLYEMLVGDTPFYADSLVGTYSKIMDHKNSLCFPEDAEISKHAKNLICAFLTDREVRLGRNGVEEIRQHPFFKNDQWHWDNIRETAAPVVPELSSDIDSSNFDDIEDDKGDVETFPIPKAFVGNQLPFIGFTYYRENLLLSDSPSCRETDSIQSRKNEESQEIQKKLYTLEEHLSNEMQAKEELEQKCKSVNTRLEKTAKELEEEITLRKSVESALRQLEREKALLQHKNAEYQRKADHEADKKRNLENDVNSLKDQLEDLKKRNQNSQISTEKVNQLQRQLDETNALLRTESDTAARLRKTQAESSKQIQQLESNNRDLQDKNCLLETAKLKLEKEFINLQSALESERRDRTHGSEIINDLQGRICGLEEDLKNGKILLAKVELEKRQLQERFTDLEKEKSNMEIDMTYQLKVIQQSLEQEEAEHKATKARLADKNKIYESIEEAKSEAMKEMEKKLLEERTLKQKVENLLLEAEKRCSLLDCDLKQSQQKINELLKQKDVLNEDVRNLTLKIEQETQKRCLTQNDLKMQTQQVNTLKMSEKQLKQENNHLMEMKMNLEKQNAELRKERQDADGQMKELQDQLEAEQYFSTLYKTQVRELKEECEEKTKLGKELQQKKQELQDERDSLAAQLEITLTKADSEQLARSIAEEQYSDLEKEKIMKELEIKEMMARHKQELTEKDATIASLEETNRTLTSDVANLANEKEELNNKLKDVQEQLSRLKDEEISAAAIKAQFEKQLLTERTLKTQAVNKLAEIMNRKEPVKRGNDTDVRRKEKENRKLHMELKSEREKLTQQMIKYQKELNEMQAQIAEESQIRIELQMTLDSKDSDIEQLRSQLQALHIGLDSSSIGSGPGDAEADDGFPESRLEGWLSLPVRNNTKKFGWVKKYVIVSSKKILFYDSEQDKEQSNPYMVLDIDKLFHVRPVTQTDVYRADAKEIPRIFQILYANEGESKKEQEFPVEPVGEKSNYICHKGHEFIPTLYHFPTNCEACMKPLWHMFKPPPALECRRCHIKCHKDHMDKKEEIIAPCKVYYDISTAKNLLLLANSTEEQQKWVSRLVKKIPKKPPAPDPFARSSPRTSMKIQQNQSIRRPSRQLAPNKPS
As to `COc1cccc(CNC(=O)Nc2ccc(-c3cn[nH]c3)cc2)c1`, the IC50 (in general, the point on the concentration scale where inhibition reaches its midpoint) stood at 2 nM.
Consider `COc1cccc(CNC(=O)Nc2ccc(-c3ncnc4[nH]ccc34)cc2)c1`, for which the half-maximal inhibitory concentration (IC50) amounted to 188 nM.
The same measure for `COc1ccc(CNC(=O)Nc2ccc(-c3cn[nH]c3)cc2)cc1`: 2750 nM.
The same measure for `COc1cccc(CNC(=O)Nc2ccc(-c3cn[nH]c3)cc2OCCN2CCCC2)c1`: less than 1 nM; for `O=C(NCc1cccc(Cl)c1)Nc1ccc(-c2cn[nH]c2)cc1`: 17 nM; for `COc1cccc(CNC(=O)Nc2ccc(-c3cn[nH]c3)cc2N(C)CCN(C)C)c1`: less than 1 nM.
The same measure for `COc1cccc(CNC(=O)Nc2ccc(-c3ccncc3)cc2)c1`: 5 nM.
`O=C(NCc1ccccc1)Nc1ccc(-c2cn[nH]c2)cc1` showed an IC50 of 18 nM.
The same measure for `COc1cccc(CN(C)C(=O)Nc2ccc(-c3cn[nH]c3)cc2OCCN(C)C)c1`: less than 1 nM.
The same measure for `COc1cccc(CN(C)C(=O)Nc2ccc(-c3cn[nH]c3)cc2OCCN2CCCC2)c1`: less than 1 nM; for `Cc1cccc(CNC(=O)Nc2ccc(-c3cn[nH]c3)cc2)c1`: 33 nM; for `COc1cccc(CNC(=O)Nc2ccc(-c3cn[nH]c3)cc2OCCN(C)C)c1`: less than 1 nM.
Consider `COc1cccc(CNC(=O)Nc2ccc(-c3c[nH]nc3C)cc2)c1`, for which the IC50 is 2 nM.
With `Nc1cccc(CNC(=O)Nc2ccc(-c3cn[nH]c3)cc2)c1`, the half-maximal inhibitory concentration (IC50) turned out to be 3 nM.
The same measure for `COc1cccc(CNC(=O)Nc2ccc(-c3ccnc(N)n3)cc2)c1`: 13 nM; for `COc1cccc(CN(C)C(=O)Nc2ccc(-c3cn[nH]c3)cc2N(C)CCN(C)C)c1`: 8 nM.
The same measure for `COc1cccc(CNC(=O)Nc2ccc(-c3cn[nH]c3)cc2F)c1`: less than 1 nM; for `CCN(Cc1cccc(OC)c1)C(=O)Nc1ccc(-c2cn[nH]c2)cc1OCCN(C)C`: 3 nM; for `COc1cccc(CNC(=O)Nc2ccc(-c3cn[nH]c3)cc2N(C)C)c1`: less than 1 nM.
Under `COc1ccccc1CNC(=O)Nc1ccc(-c2cn[nH]c2)cc1` stands 26 nM.
`COc1cccc(CNC(=O)Nc2ccc(-c3cn[nH]c3)cc2Cl)c1` displayed an IC50 of less than 1 nM.
Under `CCN(Cc1cccc(OC)c1)C(=O)Nc1ccc(-c2cn[nH]c2)cc1N(C)CCN(C)C` stands 6 nM; under `COc1cccc(CNC(=O)Nc2ccc(-c3cn[nH]c3)cc2OC)c1`, less than 1 nM.
Under `O=C(NCc1cccc(F)c1)Nc1ccc(-c2cn[nH]c2)cc1` stands 3 nM; under `CCN(Cc1cccc(OC)c1)C(=O)Nc1ccc(-c2cn[nH]c2)cc1OCCN1CCCC1`, less than 1 nM; under `COc1cccc(CNC(=O)Nc2ccc(-c3ccnc(N)c3)cc2)c1`, 44 nM.
